Test results as given in patent US6667173B2, “Nucleic acids encoding platelet derived growth factor-alpha receptors” (The Schepens Eye Research Institute, priority 2000, dated 2003).
“Also recorded” adds a separate entry of the source.

What was measured:
F cells = assay: Collagen gel contraction assay of F cells expressing αPDGFR mutants; format: cell-based, mouse; conditions: PDGF-BB (50 ng/ml), 48 hours
Procedure: The contraction assay was based on a previously described reference, Skuta, G. et al. (1999) J. Biol. Chem. 274:30163, with the following modifications. Fα cells were suspended in 1.5 mg/ml of neutralized collagen I (Cohesion vitrogen 100, Palo Alto, Calif.) at a density of 10^6 cells/ml, and were transferred into the 24-well plate (Falcon, Franklyn Lakes, N.J.) that had been preincubated with phosphate-buffer saline (PBS) with 5 mg/ml of bovine serum albumin (BSA) overnight. The gel was solidified by incubating at 37° C. for 90 minutes, and then the well was flooded with DMEM+5 mg/ml of BSA supplemented with an amount of vitreous such that the final concentration of vitreous in the culture medium was 1, 5 or 20%. The gels were incubated at 37° C. with 5% CO2. The initial gel diameter was 15 mm. The media was replaced every 24 hours and the gel diameter was measured after 48 hours. The extent of contraction was calculated by subtracting the diameter of the well at 48 hours from the initial diameter (15 mm). Each experimental condition was assayed in triplicate, and at least three independent experiments were performed. Unpaired t-test was performed to detect statistic difference in contraction assay.
To determine the signaling pathways that drive contraction, cells expressing the αPDGFR mutants were subjected to the collagen gel contraction assay described above. Accordingly, F cells expressing the indicated αPDGFRs were subjected to the collagen gel assay in the presence of buffer, PDGF-BB (50 ng/ml), TGFβ1 (1 ng/ml), or FBS (10%). The data presented are the mean±standard deviation measured at the 48 hours time point. Each experimental condition was assayed in triplicate, and at least 3 independent experiments were performed.

PLCγ = assay: Co-immunoprecipitation of PLCγ with αPDGFR mutants in F cells; format: cell-based, mouse; conditions: 50 ng/ml PDGF-BB, 5 minutes
Procedure: (§1) The ability of the αPDGFR mutants to undergo ligand dependent tyrosine phosphorylation and to associate with signaling enzymes was then tested. F cells expressing various αPDGFR mutants were grown to subconfluence and serum starved overnight. Cells were either left resting (−) or stimulated with 50 ng/ml PDGF-BB (+) for 5 minutes, and lysed. The αPDGFR was immunoprecipitated with αPDGFR antibody, as described above, and the resulting immunoprecipitates were resolved by 7.5% SDS-PAGE and transferred onto Immobilon. The segment of the blot containing the αPDGFR was first blotted with anti-phosphotyrosine antibodies, then stripped and reprobed with an anti-αPDGFR antibody. Portions of the membrane that contained the proteins of the appropriate molecular mass were immunoblotted for PLCγ, the regulatory subunit of PI3K (p85), or SHP-2. Crude rabbit anti-p85 antibody is from Dr. A. Toker (Beth Israel Hospital/Harvard Medical School, Boston, Mass.). The monoclonal antibodies against PLCγ and SHP-2 were purchased from Upstate Biotechnology Inc.

PI3K (p85) = assay: Co-immunoprecipitation of the regulatory subunit of PI3K (p85) with αPDGFR mutants in F cells; format: cell-based, mouse; conditions: 50 ng/ml PDGF-BB, 5 minutes
Procedure: as §1

SHP-2 = assay: Co-immunoprecipitation of SHP-2 with αPDGFR mutants in F cells; format: cell-based, mouse; conditions: 50 ng/ml PDGF-BB, 5 minutes
Procedure: as §1

Src family kinases = conditions: cited from earlier work
rabbit eyes = conditions: previously found (Rosenkranz et al. 2000); cited from earlier work

In the case of “F72/74: αPDGFR mutant, Tyr to Phe substitution at 572 and 574”, the PDGF-dependent contraction (F cells) is reported as “no effect on contraction”, the “recruitment or activation of PLCγ (Properties)” value (PLCγ) is reported as “bind all of these signaling enzymes” and the “recruitment of PI3K / p85 (Properties)” value (PI3K (p85)) is reported as “bind all of these signaling enzymes”. For the same substance, the “recruitment of SHP-2 (Properties)” value (SHP-2) was “bind all of these signaling enzymes”, the “recruitment or activation of Src family kinases (Properties)” value (Src family kinases) was “selectively fails to associate with Src family kinases; also recorded: Fails to recruit or activate” and the “potential to induce PVR” value (rabbit eyes) was “induced PVR with slightly accelerated kinetics”.
